Some test systems named below: MDA-MB-231 breast; 786-0 renal; PC-3 prostate; DU-145 prostate; HOP-92 NSCLC; KM12 colon; COLO 205 colon; MOLT-4 leukemia; SK-MEL-5 melanoma.
Assay in all cases: growth of human tumour cells (NCI), 48 h

Structures are written as SMILES.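 Cells were grown in 96-well plates and exposed to each compound for 48 hours at five concentrations; endpoints were interpolated linearly between bracketing concentrations, or set to the highest concentration if not reached. GI50 = concentration required for 50% inhibition of growth. Definition used: TGI = concentration required for complete inhibition of growth.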

In the case of `O=c1c2cc(-c3ccccc3)cnc2sn1-c1ccc([N+](=O)[O-])cc1`, the TGI with MDA-MB-231 breast, in the experiment with 786-0 renal, in the experiment on PC-3 prostate, in the experiment with DU-145 prostate, with HOP-92 NSCLC and with KM12 colon was above 100 µM in each case. Further, the TGI in the experiment with COLO 205 colon and in the experiment on MOLT-4 leukemia was above 100 µM throughout.

For `Cc1nnc(N)nc1/C=C\c1cccs1`, the TGI is above 100 µM with MDA-MB-231 breast; 52.1 µM with 786-0 renal; 56.4 µM in the experiment on PC-3 prostate; above 100 µM with DU-145 prostate; 97.8 µM in the experiment with HOP-92 NSCLC; 31.5 µM with KM12 colon. Moreover, the TGI in the experiment on COLO 205 colon and in the experiment with MOLT-4 leukemia was above 100 µM in each case.

Regarding `N=C(N)n1[nH]c2c(c1=O)CCC2`, the TGI in the experiment with MDA-MB-231 breast, with 786-0 renal, with PC-3 prostate, with DU-145 prostate, with SK-MEL-5 melanoma and with HOP-92 NSCLC was above 100 µM throughout. Further, the TGI in the experiment on COLO 205 colon was above 100 µM.

Consider `Cc1cc2nc3n(c2cc1C)C(c1c(F)cccc1F)SC3` (configuration not stated), for which the TGI in the experiment on MDA-MB-231 breast was 41.4 µM; in the experiment on 786-0 renal, 43.4 µM; in the experiment on PC-3 prostate it was above 100 µM; in the experiment on SK-MEL-5 melanoma, 28.2 µM; in the experiment on KM12 colon, above 10 µM; in the experiment with COLO 205 colon, 44.6 µM. For the same compound, the TGI in the experiment with MOLT-4 leukemia came to 47 µM.

With `NCCCn1c2c(c3ccc([N+](=O)[O-])cc3c1=O)C(=O)c1cc3c(cc1-2)OCO3`, the GI50 is 0.44 µM with MDA-MB-231 breast; 1.17 µM in the experiment on PC-3 prostate; below 0.01 µM with DU-145 prostate; 0.0273 µM with SK-MEL-5 melanoma; 2.6 µM with HOP-92 NSCLC; 0.321 µM in the experiment with KM12 colon. Besides, the GI50 in the experiment with MOLT-4 leukemia was below 0.01 µM. The TGI in the experiment with MDA-MB-231 breast came to 0.935 µM; with PC-3 prostate, 3.56 µM; in the experiment on DU-145 prostate, 1.48 µM; in the experiment with SK-MEL-5 melanoma, 0.247 µM; in the experiment on HOP-92 NSCLC, 11.1 µM; in the experiment on KM12 colon it was 4.42 µM. This compound yielded a TGI in the experiment with MOLT-4 leukemia above 100 µM.

For `CC(=O)Oc1ccc(OC(Oc2ccccc2)c2ccccc2)cc1` (configuration not stated), the TGI in the experiment with MDA-MB-231 breast was 48.8 µM; in the experiment on 786-0 renal, 57.8 µM; in the experiment with PC-3 prostate, above 100 µM; in the experiment on DU-145 prostate it was above 100 µM; in the experiment on HOP-92 NSCLC it was 34.9 µM; with KM12 colon it was 58.7 µM. The TGI in the experiment on COLO 205 colon and in the experiment on MOLT-4 leukemia was above 100 µM throughout.

Regarding `O=C1C[C@H](c2ccccc2)C2(C(=O)c3ccccc3C2=O)[C@@H](c2ccccc2)C1`, the TGI is above 100 µM in the experiment with MDA-MB-231 breast; above 100 µM with PC-3 prostate; above 100 µM in the experiment on DU-145 prostate; 31 µM in the experiment with SK-MEL-5 melanoma; 90.9 µM in the experiment on HOP-92 NSCLC; 53.6 µM in the experiment with COLO 205 colon. This compound came in with a TGI with MOLT-4 leukemia above 100 µM.

Turning to `CC(=O)c1ccc2c(c1)oc(=O)n2CCN(C)C`, the TGI in the experiment on MDA-MB-231 breast, in the experiment on 786-0 renal, with PC-3 prostate, in the experiment on KM12 colon, in the experiment on COLO 205 colon and in the experiment on MOLT-4 leukemia was above 100 µM throughout.

With `CC1CCC2c3c([nH]c4ccccc34)C3C(=O)N(C4CCCCC4)C(=O)C3C2C1` (configuration not stated), the TGI was 26.8 µM in the experiment with MDA-MB-231 breast; 19.6 µM in the experiment on 786-0 renal; above 100 µM with PC-3 prostate; above 100 µM in the experiment on DU-145 prostate; 36.1 µM in the experiment on SK-MEL-5 melanoma; 44.9 µM in the experiment on HOP-92 NSCLC. This compound gave a TGI in the experiment with COLO 205 colon above 100 µM.

As to `COC(=O)c1ccc(C)cc1C1CN=NC12Cc1cc(C)c(C)cc1C2=O` (configuration not stated), the TGI was 81.4 µM with MDA-MB-231 breast; above 100 µM in the experiment with 786-0 renal; above 100 µM in the experiment on DU-145 prostate; 49.2 µM in the experiment with SK-MEL-5 melanoma; above 100 µM in the experiment on HOP-92 NSCLC; above 100 µM in the experiment on KM12 colon. For the same compound, the TGI with MOLT-4 leukemia came out at 93 µM.

Turning to `CC(/C=N/NC1=NCCCCN1)=N\NC1=NCCCCN1`, the TGI in the experiment with MDA-MB-231 breast, in the experiment on 786-0 renal, in the experiment on PC-3 prostate, in the experiment with SK-MEL-5 melanoma, with HOP-92 NSCLC and in the experiment on KM12 colon was above 100 µM in each case. Moreover, the TGI with COLO 205 colon was 57 µM; with MOLT-4 leukemia, above 100 µM.

`CCN(CC)C(=S)SNCCc1ccc(S(N)(=O)=O)cc1`: the TGI was determined as 30.4 µM in the experiment on MDA-MB-231 breast; 27.8 µM with 786-0 renal; 26.9 µM in the experiment on PC-3 prostate; 33.8 µM in the experiment on DU-145 prostate; 24.4 µM with SK-MEL-5 melanoma; 35.1 µM in the experiment with HOP-92 NSCLC. In addition, the TGI with KM12 colon is 37.6 µM; in the experiment on COLO 205 colon, above 100 µM.

As to `CC1(C)Oc2ccc(Cl)cc2C12CC2`, the TGI with MDA-MB-231 breast turned out to be 47.6 µM; in the experiment with 786-0 renal, 31.3 µM; in the experiment on PC-3 prostate it was 27.9 µM; in the experiment on DU-145 prostate, 29.5 µM; in the experiment on SK-MEL-5 melanoma, 38.6 µM; with KM12 colon, 53.1 µM. In addition, the TGI in the experiment with COLO 205 colon stood at 32.9 µM; with MOLT-4 leukemia, 44.1 µM.

As to `Brc1cccc(C2(CCCC3(c4cccc(Br)n4)OCCO3)OCCO2)n1`, the TGI in the experiment on MDA-MB-231 breast, in the experiment with 786-0 renal, in the experiment on PC-3 prostate, in the experiment with SK-MEL-5 melanoma, in the experiment on HOP-92 NSCLC and with KM12 colon was above 100 µM in each case. Also, the TGI with COLO 205 colon and in the experiment on MOLT-4 leukemia was above 100 µM throughout.

Take `CC(C)(C)OC(=O)NC(CCCCNC(=O)OCc1ccccc1)C(=O)NC(CCCCNC(=O)OCc1ccccc1)C(=O)ON1C(=O)CCC1=O` (configuration not stated): the TGI with MDA-MB-231 breast, in the experiment on 786-0 renal, with PC-3 prostate, with SK-MEL-5 melanoma, in the experiment with HOP-92 NSCLC and with KM12 colon was above 100 µM throughout. For the same compound, the TGI in the experiment on COLO 205 colon and with MOLT-4 leukemia was above 100 µM throughout.

Consider `O=C([C@H](O)[C@@H](O)c1ccc(Br)cc1)C12CC3CC(CC(C3)C1)C2`, for which the TGI in the experiment with MDA-MB-231 breast is above 43 µM; with 786-0 renal, 45.9 µM; in the experiment with PC-3 prostate, 24.5 µM; in the experiment with DU-145 prostate, 51.8 µM; in the experiment on SK-MEL-5 melanoma, above 56.2 µM; with KM12 colon, above 74.9 µM. Moreover, the values for the TGI in the experiment with COLO 205 colon and with MOLT-4 leukemia were above 40.2 µM and above 100 µM, respectively.

Source of the values: PubChem BioAssay (NCI).
